Test results as given in patent publication US20260069584A1, “METHODS OF TREATING CHRONIC MYELOID LEUKEMIA USING THE TYROSINE KINASE INHIBITOR VODOBATINIB” (Sun Pharma Advanced Research Company Ltd., priority 2022, published 2026).
“Also recorded” adds a separate entry of the source.

Key:
[1] = molecular target: ABL1 kinase and its mutant forms; assay: In-vitro ABL1 kinase inhibition; type: biochemical
[2] = clinical; details: human, in vivo, po
Experimental: A±5 minutes window permitted till 4 hours PK sample collection. A±10 minutes window permitted for subsequent PK sample collection. Days 3, 8, 15, and 22 of Cycle 1:30 (±10) minutes Predose only. […] A #5 minutes window permitted till 4 hours PK sample collection. A #10 minutes window permitted for subsequent PK sample collection. Days 8, 15, and 22 of Cycle 2:30 (±10) minutes Predose only. Cycle 3 onwards: Predose samples on Day 1.
Pharmacokinetic analysis was performed using non-compartmental analysis. The actual elapsed time from dose was used in the final PK parameter calculations. Plasma concentrations and PK parameters for the compound of Formula I were listed and summarized by dose cohort using descriptive statistics (n, mean, standard deviation, minimum, median, and maximum). Geometric mean and geometric coefficient of variation were calculated for PK parameters. Additionally, mean concentration profiles by dose cohort and cycle were illustrated. Dose proportionality of Cmax and AUC(0-24) was assessed graphically for Cycle 1 and Cycle 2. Dose proportionality was statistically evaluated using the power model approach, whenever the number of patients was at least 3 for a given cohort. Time to steady-state (Ctrough) was evaluated graphically. Differences among dose levels in CL/F and V/F, and dose-normalized Cmax and AUC(0-24) were explored using an analysis of variance.
The PK parameters for the study were summarized by treatment using descriptive (N, n, mean, standard deviation [SD], coefficient of variation [CV] % minimum, median, maximum, geometric mean and CV %) statistics, except for Tmax. For Tmax, the number of subjects, minimum, median, and maximum are reported.

[3] = Part B: treatment-emergent cardiovascular adverse events (CVAEs); type: in vivo, human
Text: For the purpose of the present invention, the adverse events were graded as per the National Cancer Institute's, Common Terminology Criteria for Adverse Events (NCI-CTCAE) Version 4.03 and Version 5.0 (https://evs.nci.nih.gov/ftp1/CTCAE/About.html). It is a descriptive terminology which can be utilized for Adverse Event (AE) reporting.
AEs were graded as per NCI-CTCAE Version 5.0. In the present study, along with others most common AEs for which patients were monitored were thrombocytopenia, neutropenia and anemia, any AE reported by the patient after the completion of AE collection period and considered related to the study drug was reported.
Two CVAEs considered related to the compound of Formula I: one Grade 2 hypertension and one fatal intracranial hemorrhage (ICH) with concomitant disease progression to BP CML.
Table 22 below lists the medical history of patients and CVAEs that were reported in the patient during treatment.

[4] = Prior Ponatinib (N = 22), Any grade
[5] = Prior Ponatinib (N = 22), Grade 3/4
[6] = ≤2 prior TKIs (N = 18), Any grade
[7] = ≤2 prior TKIs (N = 18), Grade 3/4
[8] = ≥3 prior TKIs (N = 35), Any grade
[9] = ≥3 prior TKIs (N = 35), Grade 3/4

Cc1ccc(C(=O)NNC(=O)c2c(C)cccc2Cl)cc1C#Cc1cnc2ccccc2c1 [compound of Formula I, N′-(2-chloro-6-methylbenzoyl)-4-methyl-3-[2-(3-quinolyl)ethynyl]-benzohydrazide]
IC50 [1]: nanomolar
Tmax [2]: 1.5 to 2.5 h
AUC(0-t) ([2]; 204 mg): 27500 ng·h/mL
Cmax ([2]; 204 mg): 3310 ng/mL
patients with CVAEs ([3]; 1 patient, less than or equal to 2 TKIs): 5.5%
patients with CVAEs ([3]; 10 patients, prior ponatinib): 45.4%
CVAEs unrelated to the compound ([3]; 12 patients with CV history): 10
patients with CVAEs ([3]; 13 patients, more than or equal to 3 TKIs): 37.1%
patients with CVAEs, any grade ([3]; 14 patients out of 53): 26.4%
Treatment-emergent cardiovascular AE: Adverse Events Cluster - Cardiac and vascular events (%) ([3]; Overall (N = 53), Any grade): (26.4%)
Treatment-emergent cardiovascular AE: Angina Pectoris (%) ([3]; Overall (N = 53), Any grade): (3.7%)
Treatment-emergent cardiovascular AE: Arteriosclerosis (%) ([3]; Overall (N = 53), Any grade): (1.8%)
Treatment-emergent cardiovascular AE: Cerebral haemorrhage (%) ([3]; Overall (N = 53), Any grade): (1.8%)
Treatment-emergent cardiovascular AE: Congestive heart failure (%) ([3]; Overall (N = 53), Any grade): (1.8%)
Treatment-emergent cardiovascular AE: Hot flush (%) ([3]; Overall (N = 53), Any grade): (1.8%)
Treatment-emergent cardiovascular AE: Hypertension (%) ([3]; Overall (N = 53), Any grade): (7.5%)
Treatment-emergent cardiovascular AE: Hypotension (%) ([3]; Overall (N = 53), Any grade): (1.8%)
Treatment-emergent cardiovascular AE: Intermittent claudication (%) ([3]; Overall (N = 53), Any grade): (1.8%)
Treatment-emergent cardiovascular AE: Intracranial haemorrhage (%) ([3]; Overall (N = 53), Any grade): (1.8%)
Treatment-emergent cardiovascular AE: Mouth haemorrhage (%) ([3]; Overall (N = 53), Any grade): (1.8%)
Treatment-emergent cardiovascular AE: Palpitations (%) ([3]; Overall (N = 53), Any grade): (1.8%)
Treatment-emergent cardiovascular AE: Syncope (%) ([3]; Overall (N = 53), Any grade): (1.8%)
Treatment-emergent cardiovascular AE: Transient ischaemic attack (%) ([3]; Overall (N = 53), Any grade): (1.8%)
Treatment-emergent cardiovascular AE: Troponin I increased (%) ([3]; Overall (N = 53), Any grade): (1.8%)
Treatment-emergent cardiovascular AEs: Deaths (%) ([3]; Overall (N = 53), Any grade): (1.8%)
Treatment-emergent cardiovascular AEs: Dose interruption and restart (%) ([3]; Overall (N = 53), Any grade): (3.7%)
Treatment-emergent cardiovascular AEs: Leading to drug withdrawal (%) ([3]; Overall (N = 53), Any grade): (1.8%)
Treatment-emergent cardiovascular AEs: Related to study drug (%) ([3]; Overall (N = 53), Any grade): (3.7%)
Treatment-emergent cardiovascular AEs: Serious Adverse Events (%) ([3]; Overall (N = 53), Any grade): (7.5%)
Treatment-emergent cardiovascular AE: Adverse Events Cluster - Cardiac and vascular events (%) ([3]; Overall (N = 53), Grade 3/4): (5.6%)
Treatment-emergent cardiovascular AE: Congestive heart failure (%) ([3]; Overall (N = 53), Grade 3/4): (1.8%)
Treatment-emergent cardiovascular AE: Hypertension (%) ([3]; Overall (N = 53), Grade 3/4): (1.8%)
Treatment-emergent cardiovascular AE: Syncope (%) ([3]; Overall (N = 53), Grade 3/4): (1.8%)
Treatment-emergent cardiovascular AEs: Dose interruption and restart (%) ([3]; Overall (N = 53), Grade 3/4): (1.8%)
Treatment-emergent cardiovascular AEs: Serious Adverse Events (%) ([3]; Overall (N = 53), Grade 3/4): (1.8%)
CVAEs during treatment ([3]; Patient 25000603, history: Hypertension, Myocardial ischaemia, prior TKI therapy 3, ponatinib received No): Hypertension
CVAEs during treatment ([3]; Patient 35600503, history: Intracranial hemorrhage, prior TKI therapy 3, ponatinib received No): Oral hemorrhage
CVAEs during treatment ([3]; Patient 35600706, history: Acute myocardial infarction, myocardial ischemia, prior TKI therapy 3, ponatinib received No): Hypertension
CVAEs during treatment ([3]; Patient 41000101, history: Hypertension, prior TKI therapy 3, ponatinib received No): Angina pectoris,; also recorded: Palpitations,; also recorded: Arteriosclerosis
CVAEs during treatment ([3]; Patient 84000202, history: Hypertension, prior TKI therapy 4, ponatinib received Yes): Hypertension,; also recorded: Hypotension
CVAEs during treatment ([3]; Patient 84000203, history: Hypertension, prior TKI therapy 6, ponatinib received Yes): Hot flush
CVAEs during treatment ([3]; Patient 84000206, history: Bradycardia, Hypertension, prior TKI therapy 5, ponatinib received Yes): Angina pectoris
Treatment-emergent cardiovascular AE: Adverse Events Cluster - Cardiac and vascular events (%) [3, 4]: (45.4%)
Treatment-emergent cardiovascular AE: Angina Pectoris (%) [3, 4]: (4.5%)
Treatment-emergent cardiovascular AE: Cerebral haemorrhage (%) [3, 4]: (4.5%)
Treatment-emergent cardiovascular AE: Congestive heart failure (%) [3, 4]: (4.5%)
Treatment-emergent cardiovascular AE: Hot flush (%) [3, 4]: (4.5%)
Treatment-emergent cardiovascular AE: Hypertension (%) [3, 4]: (9.1%)
Treatment-emergent cardiovascular AE: Hypotension (%) [3, 4]: (4.5%)
Treatment-emergent cardiovascular AE: Intermittent claudication (%) [3, 4]: (4.5%)
Treatment-emergent cardiovascular AE: Syncope (%) [3, 4]: (4.5%)
Treatment-emergent cardiovascular AE: Transient ischaemic attack (%) [3, 4]: (4.5%)
Treatment-emergent cardiovascular AE: Troponin I increased (%) [3, 4]: (4.5%)
Treatment-emergent cardiovascular AEs: Serious Adverse Events (%) [3, 4]: (13.6%)
Treatment-emergent cardiovascular AE: Adverse Events Cluster - Cardiac and vascular events (%) [3, 5]: (13.6%)
Treatment-emergent cardiovascular AE: Congestive heart failure (%) [3, 5]: (4.5%)
Treatment-emergent cardiovascular AE: Hypertension (%) [3, 5]: (4.5%)
Treatment-emergent cardiovascular AE: Syncope (%) [3, 5]: (4.5%)
Treatment-emergent cardiovascular AEs: Serious Adverse Events (%) [3, 5]: (4.5%)
CVAEs related to the compound ([3]; grade 2 hypertension and fatal intracranial hemorrhage): 2
major CVAEs ([3]; highest dose of 204 mg, as long as 24 months): did not result in major CVAEs
permanent discontinuation due to CVAEs ([3]; human, in vivo): 1
dose modifications due to CVAEs ([3]; in vivo): No dose modifications
patients reporting CVAEs on study ([3]; of thirty patients with medical history of CVAEs): 12 patients
grade 3 or 4 CVAEs ([3]; out of 53): 5.6%
withdrawal criteria based on QTcF prolongation or safety laboratory tests ([3]; patients): No subject reached the subject withdrawal criteria
Treatment-emergent cardiovascular AE: Adverse Events Cluster - Cardiac and vascular events (%) [3, 6]: (5.5%)
Treatment-emergent cardiovascular AE: Congestive heart failure (%) [3, 6]: (5.5%)
Treatment-emergent cardiovascular AE: Adverse Events Cluster - Cardiac and vascular events (%) [3, 7]: (5.5%)
Treatment-emergent cardiovascular AE: Congestive heart failure (%) [3, 7]: (5.5%)
Treatment-emergent cardiovascular AE: Adverse Events Cluster - Cardiac and vascular events (%) [3, 8]: (37.1%)
Treatment-emergent cardiovascular AE: Angina Pectoris (%) [3, 8]: (5.7%)
Treatment-emergent cardiovascular AE: Arteriosclerosis (%) [3, 8]: (2.8%)
Treatment-emergent cardiovascular AE: Cerebral haemorrhage (%) [3, 8]: (2.8%)
Treatment-emergent cardiovascular AE: Hot flush (%) [3, 8]: (2.8%)
Treatment-emergent cardiovascular AE: Hypertension (%) [3, 8]: (11.4%)
Treatment-emergent cardiovascular AE: Hypotension (%) [3, 8]: (2.8%)
Treatment-emergent cardiovascular AE: Intermittent claudication (%) [3, 8]: (2.8%)
Treatment-emergent cardiovascular AE: Intracranial haemorrhage (%) [3, 8]: (2.8%)
Treatment-emergent cardiovascular AE: Mouth haemorrhage (%) [3, 8]: (2.8%)
Treatment-emergent cardiovascular AE: Palpitations (%) [3, 8]: (2.8%)
Treatment-emergent cardiovascular AE: Syncope (%) [3, 8]: (2.8%)
Treatment-emergent cardiovascular AE: Transient ischaemic attack (%) [3, 8]: (2.8%)
Treatment-emergent cardiovascular AE: Troponin I increased (%) [3, 8]: (2.8%)
Treatment-emergent cardiovascular AE: Ventricular Extrasystoles (%) [3, 8]: (2.8%)
Treatment-emergent cardiovascular AEs: Deaths (%) [3, 8]: (2.8%)
Treatment-emergent cardiovascular AEs: Dose interruption and restart (%) [3, 8]: (5.7%)
Treatment-emergent cardiovascular AEs: Leading to drug withdrawal (%) [3, 8]: (2.8%)
Treatment-emergent cardiovascular AEs: Related to study drug (%) [3, 8]: (5.7%)
Treatment-emergent cardiovascular AEs: Serious Adverse Events (%) [3, 8]: (11.4%)
Treatment-emergent cardiovascular AE: Adverse Events Cluster - Cardiac and vascular events (%) [3, 9]: (5.7%)
Treatment-emergent cardiovascular AE: Hypertension (%) [3, 9]: (2.8%)
Treatment-emergent cardiovascular AE: Syncope (%) [3, 9]: (2.8%)
Treatment-emergent cardiovascular AEs: Dose interruption and restart (%) [3, 9]: (2.8%)
Treatment-emergent cardiovascular AEs: Serious Adverse Events (%) [3, 9]: (2.8%)
